Values after ≈ are worked out from the molar mass of the structure shown. Where a name gives a salt, the structure may show the parent alone. Read-outs that look alike come from different tables or passages of the source.
What was measured:
Assay type in all cases: cell-based
[1] = test system: H37Rv strain of M. tuberculosis; assay: BACTEC 460 radiometric system in BACTEC 12B medium: inhibition and MIC; details: for MIC: lowest concentration inhibiting 99% of the inoculum
M. tuberculosis H37Ra [2] = assay: colorimetric microdilution broth assay with alamar Blue, initial screen at four log10 dilutions; details: initial screening at 0.128, 1.28, 12.8 and 128 μg/mL
Description: The compounds synthesized above were evaluated for activity against M. tuberculosis H37Ra using a colorimetric microdilution broth assay that incorporated the REDOX indicator alamar Blue, which indicates the growth and viability by the metabolic reduction of the dye from blue to red^18.
In an initial screen, the compounds were assayed in duplicate at four log10 dilutions, with the highest concentration being 128 μg/mL (therefore, tested concentrations were 0.128, 1.28, 12.8, and 128 μg/mL). Each solubilized test compound was diluted in broth medium (Middlebrook 7H9+ADC enrichment+0.2% glycerol) at twice the desired concentration and 0.05 mL of each dilution then added to appropriate wells in duplicate in a 96 well (U-shaped) microtiter plates. A plate format was designed for up to seven (7) compounds per plate. Each plate also included uninoculated drug controls, viability controls, uninoculated medium controls, and positive drug controls. The inoculum for each well consisted of 0.05 mL of culture, standardized as described above to provide an inoculum in each microtiter well of approximately 10^5 CFU/mL. The plates were covered with a lid, placed in polyethylene bags and incubated for at 37° C. for 6 days. At that time, alamar Blue, diluted in Tween 80, was added to each well followed by further incubation for about 20 hours. The plates were read in an optical microplate reader programmed to subtract absorbance at 600 nm from absorbance at 570 nm. This effectively blanked out turbidity and absorbance due to oxidized dye. The amount of dye reduced, resulting in a change from blue to red, is indicative of drug yielding a differential absorption of zero or less.

M. tuberculosis H37Ra [3] = assay: MIC and MBC determination using 2-fold dilutions; details: for MIC / MBC: Mycobacterium tuberculosis
[4] = Mycobacterium tuberculosis, H37RA, read-out: MIC
[5] = Mycobacterium tuberculosis, H37RA
[6] = 2-fold dilutions, lowest concentration that completely inhibits growth, H37Ra, read-out: MIC
[7] = minimum bactericidal concentration, H37Ra, read-out: MBC

Molecule: 7,8-Dihydrosoulattrolide [7,8-Dihydrosoulattrolide (5)]
- % Inhibition ([1]; 12.5 μg/mL): 99%
- MIC [1]: 6.25 µg/mL

Molecule: CCCc1cc(=O)oc2c3c(c4c(c12)OC(C)(C)C=C4)O[C@H](C)[C@@H](C)C3=O (racemic) [(±)-6]
- % Inhibition ([1]; 12.5 μg/mL): 59%
- MIC [1]: >12.5 µg/mL

Molecule: CCCc1cc(=O)oc2c3c(c4c(c12)OC(C)(C)CC4)OC(C)C(C)C3=O (racemic) [(±)-7,8-Dihydro-12-Oxocalanolide A (7), (±)-7,8-Dihydro-12-Oxocalanolide A]
- % Inhibition ([1]; 12.5 μg/mL): 43%
- MIC [1]: >12.5 µg/mL

Molecule: CCCc1cc(=O)oc2c(C(=O)CC)c(OCCN3CCOCC3)c3c(c12)OC(C)(C)CC3 [2,2-Dimethyl-5-(2-morpholin-4-yl-ethoxy)-6-propionyl-10-propyl-3,4-dihydro-2H-pyrano[2,3-f]-chromen-8-one]
- MIC (M. tuberculosis H37Ra [2]; [4]): > 128 µg/mL

Molecule: CCCc1cc(=O)oc2c3c(c4c(c12)OC(C)(C)C=C4)O[C@H](C)[C@@H](C)C3=O [(+)-12-Oxocalanolide A (6), (+)-12-Oxocalanolide A]
- % Inhibition ([1]; 12.5 μg/mL): 78%
- MIC [1]: >12.5 µg/mL

Molecule: CCCc1cc(=O)oc2c3c(c4c(c12)OC(C)(C)C=C4)O[C@H](C)[C@H](C)C3=O [(+)-Calanolide D (8), (+)-Calanolide D]
- % Inhibition ([1]; 12.5 μg/mL): 57%
- MIC [1]: >12.5 µg/mL

Molecule: CCCc1cc(=O)oc2c3c(c4c(c12)OC(C)(C)C=C4)O[C@@H](C)[C@H](C)[C@@H]3O [(−)-Calanolide B (3), (−)-Calanolide B]
- % Inhibition ([1]; 12.5 μg/mL): 99%
- MIC [1]: 6.25 µg/mL (≈ 16.9 µM)

Molecule: CCCc1cc(=O)oc2c(C(O)CC)c(O)c3c(c12)OC(C)(C)C=C3 (stereo not drawn) [Compound 11a, 5-Hydroxy-6-(1-hydroxypropyl)-2,2-dimethyl-10-propyl-2H-pyrano[2,3-f]chromen-8-one]
- MIC (M. tuberculosis H37Ra [2]; [4]): 12.8 to 128 µg/mL (≈ 37.2 to 372 µM)

Molecule: CCCc1cc(=O)oc2c(C(O)CC)c(OC)c3c(c12)OC(C)(C)C=C3 (stereo not drawn) [Compound 11b, 6-(1-Hydroxypropyl)-5-methoxy-2,2-dimethyl-10-propyl-2H-pyrano[2,3-f]chromen-8-one]
- MIC (M. tuberculosis H37Ra [2]; [5]): 12.8 to 128 µg/mL (≈ 35.7 to 357 µM)

Molecule: CCCc1cc(=O)oc2c(C(O)CC)c(OCCO)c3c(c12)OC(C)(C)C=C3 (stereo not drawn) [Compound 11e, 5-(2-Hydroxyethoxy)-6-(1-hydroxypropyl)-2,2-dimethyl-10-propyl-2H-pyrano[2,3-f]chromen-8-one]
- MIC (M. tuberculosis H37Ra [2]; [4]): 12.8 to 128 µg/mL (≈ 33 to 330 µM)

Molecule: CCCc1cc(=O)oc2c(C(O)CC)c(O)c3c(c12)OC(C)(C)CC3 (stereo not drawn) [Compound 12a, 5-Hydroxy-6-(1-hydroxypropyl)-2,2-dimethyl-10-propyl-3,4-dihydro-2H-pyrano[2,3-f]chromen-8-one]
- MIC (M. tuberculosis H37Ra [2]; [4]): 12.8 to 128 µg/mL (≈ 36.9 to 369 µM)

Molecule: CCCc1cc(=O)oc2c(C(O)CC)c(OC)c3c(c12)OC(C)(C)CC3 (stereo not drawn) [Compound 12b, 6-(1-Hydroxypropyl)-5-methoxy-2,2-dimethyl-10-propyl-3,4-dihydro-2H-pyrano[2,3-f]chromen-8-one]
- MIC (M. tuberculosis H37Ra [2]; [5]): 12.8 to 128 µg/mL (≈ 35.5 to 355 µM)

Molecule: CCCc1cc(=O)oc2c(C(O)CC)c(OCCO)c3c(c12)OC(C)(C)CC3 (stereo not drawn) [Compound 12e, 5-(2-Hydroxyethoxy)-6-(1-hydroxypropyl)-2,2-dimethyl-10-propyl-3,4-dihydro-2H-pyrano[2,3-f]chromen-8-one]
- MIC (M. tuberculosis H37Ra [2]; [4]): 12.8 to 128 µg/mL (≈ 32.8 to 328 µM)

Molecule: C=CCOc1cc(OCC=C)c2c(CCC)cc(=O)oc2c1C(O)CC (stereo not drawn) [Compound 21d, 5,7-Bis-allyloxy-8-(1-hydroxy-propyl)-4-propyl-chromen-2-one]
- MIC (M. tuberculosis H37Ra [2]; [4]): 1.28 to 12.8 µg/mL (≈ 3.57 to 35.7 µM)
- MIC (M. tuberculosis H37Ra [3]; [6]): 16 µg/mL (≈ 44.6 µM)
- MBC (M. tuberculosis H37Ra [3]; [7]): > 64 µg/mL

Molecule: CCCc1cc(=O)oc2c3c(c4c(c12)OC(C)(C)C=C4)O[C@H](C)[C@@H](C)C3N (stereo partly drawn) [Compound 22]
- MIC (M. tuberculosis H37Ra [2]; [4]): 1.28 to 12.8 µg/mL (≈ 3.46 to 34.6 µM)
- effect on M. tuberculosis (M. tuberculosis H37Ra [3]): bactericidal
- MIC (M. tuberculosis H37Ra [3]; [6]): 16 µg/mL (≈ 43.3 µM)
- MBC (M. tuberculosis H37Ra [3]; [7]): 32 µg/mL (≈ 86.6 µM)

Molecule: CCCc1cc(=O)oc2c(C(N)CC)c(OC(C)C)cc(OC(C)C)c12 (stereo not drawn) [Compound 26c, 8-(1-Aminopropyl)-5,7-diisopropoxy-4-propyl-chromen-2-one, hydrochloride]
- MIC (M. tuberculosis H37Ra [2]; [4]): 1.28 to 12.8 µg/mL
- effect on M. tuberculosis (M. tuberculosis H37Ra [3]): bactericidal
- MIC (M. tuberculosis H37Ra [3]; [6]): 16 µg/mL
- MBC (M. tuberculosis H37Ra [3]; [7]): 64 µg/mL

Molecule: CCCc1cc(=O)oc2c(C(=O)CC)c(O)c3c(c12)OC(C)(C)C=C3 [Compound 30, 5-hydroxy-2,2-dimethyl-6-propionyl-10-propyl-2H-pyrano[2,3-f]chromen-8-one]
- MIC (M. tuberculosis H37Ra [2]; [4]): > 128 µg/mL

Molecule: CCCc1cc(=O)oc2c(C(=O)CC)c(OC)c3c(c12)OC(C)(C)C=C3 [Compound 31b, 5-Methoxy-2,2-dimethyl-6-propionyl-10-propyl-2H-pyrano[2,3-f]chromen-8-one]
- MIC (M. tuberculosis H37Ra [2]; [4]): 12.8 to 128 µg/mL (≈ 35.9 to 359 µM)

Molecule: CCCc1cc(=O)oc2c(C(=O)CC)c(OCCO)c3c(c12)OC(C)(C)C=C3 [Compound 31e, 5-(2-Hydroxy-ethoxy)-2,2-dimethyl-6-propionyl-10-propyl-2H-pyrano[2,3-f]chromen-8-one]
- MIC (M. tuberculosis H37Ra [2]; [4]): 12.8 to 128 µg/mL (≈ 33.1 to 331 µM)

Molecule: CCCc1cc(=O)oc2c(C(=O)CC)c(OC)cc(OC)c12 [Compound 43b, 5,7-Dimethoxy-8-propionyl-4-propyl-chromen-2-one]
- MIC (M. tuberculosis H37Ra [2]; [4]): > 128 µg/mL

Molecule: CCCc1cc(=O)oc2c(C(=O)CC)c(O)c3c(c12)OC(C)(C)CC3 [Compound 44a, 5-Hydroxy-2,2-dimethyl-6-propionyl-10-propyl-3,4-dihydro-2H-pyrano[2,3-f]chromen-8-one]
- MIC (M. tuberculosis H37Ra [2]; [4]): > 128 µg/mL

Molecule: CCCc1cc(=O)oc2c(C(=O)CC)c(OCCO)c3c(c12)OC(C)(C)CC3 [Compound 44e, 5-(2-Hydroxyethoxy)-2,2-dimethyl-6-propionyl-10-propyl-3,4-dihydro-2H-pyrano[2,3-f]chromen-8-one]
- MIC (M. tuberculosis H37Ra [2]; [4]): 12.8 to 128 µg/mL (≈ 33 to 330 µM)

Molecule: CCCc1cc(=O)oc2c(C(=O)CC)c(OC(C)C)c3c(c12)OC(C)(C)CC3 [Compound 44h, 5-Isopropoxy-2,2-dimethyl-6-propionyl-10-propyl-3,4-dihydro-2H-pyrano[2,3-f]chromen-8-one]
- MIC (M. tuberculosis H37Ra [2]; [4]): > 128 µg/mL

Molecule: CCCc1cc(=O)oc2c(C(=O)CC)c(CC(=O)OCC)c3c(c12)OC(C)(C)CC3 [Compound 44i, 5-Ethoxycarbonylmethyl-2,2-dimethyl-6-propionyl-10-propyl-3,4-dihydro-2H,8H-pyrano[2,3-f]chromen-8-one]
- MIC (M. tuberculosis H37Ra [2]; [5]): > 128 µg/mL

Molecule: CCCc1cc(=O)oc2c(C(=O)CC)c(OCCO)c3c(c12)OC(C)(C)CC3 [Compound 44k]
- MIC (M. tuberculosis H37Ra [2]): >128 µg/mL

Molecule: CCCc1cc(=O)oc2c(C(N)CC)c(O)c3c(c12)OC(C)(C)C=C3 (stereo not drawn) [Compound 45a, 6-(1-Aminopropyl)-5-hydroxy-2,2-dimethyl-10-propyl-2H-pyrano[2,3-f]chromen-8-one]
- MIC (M. tuberculosis H37Ra [2]; [4]): 12.8 to 128 µg/mL (≈ 37.3 to 373 µM)

Molecule: CCCc1cc(=O)oc2c(C(CC)NCC)c(OC)c3c(c12)OC(C)(C)C=C3.Cl (stereo not drawn) [Compound 45g, 6-(1-Ethylaminopropyl)-5-methoxy-2,2-dimethyl-10-propyl-2H-pyrano[2,3-f]chromen-8-one, hydrochloride]
- MIC (M. tuberculosis H37Ra [2]; [4]): 12.8 to 128 µg/mL

Molecule: CCCc1cc(=O)oc2c(C(=O)CC)c3c(c(O)c12)C=CC(C)(C)O3 [Compound 47]
- MIC (M. tuberculosis H37Ra [2]; [4]): 12.8 to 128 µg/mL (≈ 37.4 to 374 µM)

Molecule: CCCc1cc(=O)oc2c(C(=O)CC)c3c(c(OCC)c12)C=CC(C)(C)O3 [Compound 48]
- MIC (M. tuberculosis H37Ra [2]; [4]): 12.8 to 128 µg/mL (≈ 34.6 to 346 µM)

Molecule: C#CCOc1cc2c(c3oc(=O)cc(CCC)c13)C(O)C(C)C(C)O2 (stereo not drawn) [Compound trans-17d, 5-(Prop-2-ynyloxy)-10-hydroxy-8,9-dimethyl-4-propyl-9,10-dihydro-8H-pyrano[2,3-f]chromen-2-one]
- MIC (M. tuberculosis H37Ra [2]): >128 µg/mL

Molecule: C[C@H]1[C@H](C)Oc2c3c(c4c(-c5ccccc5)cc(=O)oc4c2[C@H]1O)OC(C)(C)C=C3 [Soulattrolide (4), Soulattrolide]
- inhibition at 12.5 µg/mL ([1]; Mycobacterium tuberculosis, 12.5 μg/mL): 99%
- MIC ([1]; Mycobacterium tuberculosis, read-out: MIC): 3.13 µg/mL (≈ 7.74 µM)

Molecule: CCCc1cc(=O)oc2c3c(cc(OC)c12)OC(C)C(C)C3O (stereo not drawn) [cis-17b, 5-Methoxy-10-hydroxy-8,9-dimethyl-4-propyl-9,10-dihydro-8H-pyrano[2,3-f]chromen-2-one]
- MIC (M. tuberculosis H37Ra [2]): >128 µg/mL

Molecule: C=CCOc1cc2c(c3oc(=O)cc(CCC)c13)C(O)C(C)C(C)O2 (stereo not drawn) [cis-17c, 5-(Allyloxy)-10-hydroxy-8,9-dimethyl-4-propyl-9,10-dihydro-8H-pyrano[2,3-f]chromen-2-one]
- effect on M. tuberculosis (M. tuberculosis H37Ra [3]): bactericidal
- MBC (M. tuberculosis H37Ra [3]; H37RA): 64 µg/mL (≈ 186 µM)
- MIC (M. tuberculosis H37Ra [3]; H37RA): 16 µg/mL (≈ 46.5 µM)

Molecule: C=CC(C)Oc1cc2c(c3oc(=O)cc(CCC)c13)C(O)C(C)C(C)O2 (stereo not drawn) [cis-17f, 5-(1-Methylallyloxy)-10-hydroxy-8,9-dimethyl-4-propyl-9,10-dihydro-8H-pyrano[2,3-f]chromen-2-one]
- MIC (M. tuberculosis H37Ra [3]; [6]): 16 µg/mL (≈ 44.6 µM)
- MBC (M. tuberculosis H37Ra [3]; [7]): > 64 µg/mL

Molecule: C=CCOc1cc2c(c3oc(=O)cc(CCC)c13)C(O)C(C)C(C)O2 (stereo not drawn) [trans-17c, 5-(Allyloxy)-10-hydroxy-8,9-dimethyl-4-propyl-9,10-dihydro-8H-pyrano[2,3-f]chromen-2-one]
- MIC (M. tuberculosis H37Ra [2]): >128 µg/mL

Molecule: C=C(C)COc1cc2c(c3oc(=O)cc(CCC)c13)C(O)C(C)C(C)O2 (stereo not drawn) [trans-17g, 5-(2-Methylallyloxy)-10-hydroxy-8,9-dimethyl-4-propyl-9,10-dihydro-8H-pyrano[2,3-f]chromen-2-one]
- MIC (M. tuberculosis H37Ra [2]): >128 µg/mL
